# How the values were obtained:
# [1] = target: T1, chitin synthase 2 of Saccharomyces cerevisiae ECY38-38A(pAS6) (Saccharomyces cerevisiae, UniProt P14180); experiment: In vitro enzyme assay for chitin synthase 2 of Saccharomyces cerevisiae (enzyme 2); type: biochemical; details: relative to polyoxin D (50% inhibitory activity = value 5)
# T1 construct: made in house; host or cells: Saccharomyces cerevisiae ECY38-38A (chs1-23 chs2::LEU2 cal1/csd2) carrying plasmid pAS6, grown in galactose medium; 130,000 x g membrane pellet
# T1 sequence (P14180 whole entry): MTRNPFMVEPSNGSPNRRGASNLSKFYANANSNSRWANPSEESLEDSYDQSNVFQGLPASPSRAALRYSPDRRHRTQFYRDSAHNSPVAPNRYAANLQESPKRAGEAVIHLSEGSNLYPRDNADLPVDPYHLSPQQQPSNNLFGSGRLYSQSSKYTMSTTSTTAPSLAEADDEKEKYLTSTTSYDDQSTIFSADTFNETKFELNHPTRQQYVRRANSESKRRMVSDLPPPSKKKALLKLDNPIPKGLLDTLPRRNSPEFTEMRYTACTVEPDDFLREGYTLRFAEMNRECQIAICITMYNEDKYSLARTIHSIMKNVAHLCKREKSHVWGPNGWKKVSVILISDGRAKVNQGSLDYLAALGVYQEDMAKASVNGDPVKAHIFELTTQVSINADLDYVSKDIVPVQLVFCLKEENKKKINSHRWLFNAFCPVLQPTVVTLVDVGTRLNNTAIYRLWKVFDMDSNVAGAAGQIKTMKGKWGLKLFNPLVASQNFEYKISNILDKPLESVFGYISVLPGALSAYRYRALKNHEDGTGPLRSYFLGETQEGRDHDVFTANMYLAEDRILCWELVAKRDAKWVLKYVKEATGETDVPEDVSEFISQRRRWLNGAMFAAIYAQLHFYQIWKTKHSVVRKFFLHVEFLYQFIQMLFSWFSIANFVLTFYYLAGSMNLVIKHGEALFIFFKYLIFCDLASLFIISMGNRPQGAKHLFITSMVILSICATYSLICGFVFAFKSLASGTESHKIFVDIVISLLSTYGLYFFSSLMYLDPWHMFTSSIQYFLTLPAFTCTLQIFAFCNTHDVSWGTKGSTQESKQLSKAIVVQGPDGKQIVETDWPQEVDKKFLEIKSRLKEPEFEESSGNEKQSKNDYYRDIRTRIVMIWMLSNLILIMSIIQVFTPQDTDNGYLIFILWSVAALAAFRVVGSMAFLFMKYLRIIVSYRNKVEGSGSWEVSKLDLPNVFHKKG
# Procedure, shortened: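 Crude membrane chitin synthase 2 came from S. cerevisiae ECY38-38A(pAS6), expressing only CHS2, and was trypsin-activated (15 min, 30 °C) then trypsin-inhibited. The reaction ran in 32 mM Tris-HCl pH 7.5, 2 mM cobalt acetate, 1.1 mM UDP-[14C]-GlcNAc, 90 min at 30 °C. TCA-precipitated product was counted by scintillation; scores 1–8 reflect concentration relative to polyoxin D's 50% inhibition (score 5).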
# [2] = target: T2, chitin synthase 1 of Candida albicans chs2 Δ chs 3 Δ (Candida albicans, UniProt P23316); experiment: In vitro enzyme assay for chitin synthase 1 of Candida albicans (enzyme 1); type: biochemical; details: relative to polyoxin D (50% inhibitory activity = value 5)
# T2 construct: Crude enzyme was prepared using the Candida albicans chs2 Δ chs 3 Δ mutant; endogenous in cells; host or cells: Candida albicans chs2Δ/chs2Δ chs3Δ/chs3Δ mutant; 130,000 x g membrane pellet
# T2 sequence (P23316 whole entry, stated change not applied): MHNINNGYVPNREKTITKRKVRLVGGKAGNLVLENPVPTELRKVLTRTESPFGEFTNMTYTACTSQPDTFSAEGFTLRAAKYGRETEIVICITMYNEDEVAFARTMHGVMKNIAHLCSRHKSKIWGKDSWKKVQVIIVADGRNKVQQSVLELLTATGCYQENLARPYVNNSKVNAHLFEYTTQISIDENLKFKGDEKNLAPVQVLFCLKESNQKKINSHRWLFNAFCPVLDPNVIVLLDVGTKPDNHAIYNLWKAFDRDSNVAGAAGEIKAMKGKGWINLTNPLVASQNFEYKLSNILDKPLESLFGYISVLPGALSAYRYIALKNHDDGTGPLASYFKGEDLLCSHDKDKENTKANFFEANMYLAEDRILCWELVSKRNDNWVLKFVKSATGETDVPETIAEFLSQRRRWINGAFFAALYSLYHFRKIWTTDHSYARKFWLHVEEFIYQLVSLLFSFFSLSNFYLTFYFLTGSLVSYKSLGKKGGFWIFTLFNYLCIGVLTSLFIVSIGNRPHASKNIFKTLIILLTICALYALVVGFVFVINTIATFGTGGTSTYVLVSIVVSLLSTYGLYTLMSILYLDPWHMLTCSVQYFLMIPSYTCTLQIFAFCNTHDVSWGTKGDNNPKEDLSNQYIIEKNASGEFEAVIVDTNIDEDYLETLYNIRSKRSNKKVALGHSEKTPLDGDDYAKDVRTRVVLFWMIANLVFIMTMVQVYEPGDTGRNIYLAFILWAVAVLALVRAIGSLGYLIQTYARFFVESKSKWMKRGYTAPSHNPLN
# Procedure, shortened: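 Crude membrane enzyme from the C. albicans chs2Δ chs3Δ strain was trypsin-activated for 15 min at 30 °C. Reaction: 32 mM Tris-HCl pH 7.5, 2 mM cobalt acetate, 1.1 mM UDP-[14C]GlcNAc, 90 min at 30 °C; TCA-insoluble radioactivity counted. Scored 1–8 by relative polyoxin D concentration (5 = equal).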
# Acute toxicity in mice = type: in vivo, ICR mice; details: for Acute toxicity LD50: ICR mouse, male
# Method: Each compound was suspended in 1% carboxymethylcellulose (CMC), and orally and abdominally administered to 6-week-old male ICR mice. […] Then, an autopsy was performed on the mice.
# chitin synthases = experiment: Inhibitory activity against the chitin synthases (summary statements); type: biochemical
# Description: The inhibitory activities against the chitin synthase 1 of Candida albicans chs2 Δ chs 3 Δ (abbreviated as ‘enzyme 1’) and the chitin synthase 2 of Saccharomyces cerevisiae ECY38-38A(pAS6)(abbreviated as ‘enzyme 2’) was examined for compound Nos. 1 to 70 compound and polyoxin D, a positive control compound.
# The inhibitory activity against the chitin synthase 1 prepared from Candida albicans and the chitin synthase 2 prepared from Saccharomyces cerevisiae were examined as follows. A reaction mixture containing 32 mM Tris-HCl (pH 7.5), 2 mM cobalt acetate, 1.1 mM UDP-[U-^14C]-N-acetyl-d-glucosamine (GlcNAc) (400,000 cpm/μmol), 2 μL of trypsin (0.75 mg/mL), 20 μL of each crude enzyme and 14 μL of each test sample was kept at 30° C. for 15 minutes to activate the enzyme. Then, 2 μL of trypsin inhibitor (1.5 mg/mL) was added and the mixture was kept in an ice bath for 10 minutes to deactivate trypsin. 2 μL of 0.8 M N-acetyl-d-glucosamine was added to a total volume of 50 μL and reaction was performed at 30° C. for 90 minutes. The reaction was stopped using 1 mL of 10% TCA solution and the reaction solution was filtered with a GF/C filter and dried at room temperature. After adding 3 mL of a scintillation cocktail solution, the amount of isotopes was measured using a liquid scintillation counter. Percentage inhibition against each enzyme was calculated by the following Equation 1.
# [3] = tested on: Candida lusitaniae ATCC 42720; experiment: In vitro antifungal activity (MIC), NCCLS method; type: cell-based; details: 48 hours
# Procedure, shortened: (§1)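 Two-fold dilutions, final inoculum 5×10^2–2.5×10^3 cell/mL, NCCLS protocol; 48 h culture for these strains. MIC = minimum inhibitory concentration.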
# [4] = tested on: Candida albicans A207 (clinical isolate); experiment: In vitro antifungal activity (MIC), NCCLS method; type: cell-based; details: 48 hours
# Procedure, shortened: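 Broth MIC by NCCLS two-fold dilution, final inoculum 5×10^2 to 2.5×10^3 cell/mL. Candida and Mucor strains incubated 48 hours.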
# [5] = tested on: Aspergillus terreus ATCC 46941; experiment: In vitro antifungal activity (MIC), NCCLS method; type: cell-based; details: 48 hours
# Procedure, shortened: (§2)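 Broth microdilution per NCCLS: two-fold serial dilutions of test compound inoculated with fungal suspension at a final 5×10^2 to 2.5×10^3 cell/mL. Strains other than Cryptococcus neoformans were incubated 48 hours before MIC reading.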
# [6] = tested on: Mucor ramosissimus ATCC 90286; experiment: In vitro antifungal activity (MIC), NCCLS method; type: cell-based; details: 48 hours
# Procedure, shortened: as §1
# Candida krusei ATCC 6258 = experiment: In vitro antifungal activity (MIC), NCCLS method; type: cell-based; details: 48 hours
# Procedure, shortened: as §1
# [7] = tested on: Cryptococcus neoformans ATCC 36556; experiment: In vitro antifungal activity (MIC), NCCLS method; type: cell-based; details: RPMI 1640 medium, 72 hours
# Procedure, shortened: as §2
# [8] = tested on: Candida glabrata ATCC 48435; experiment: In vitro antifungal activity (MIC), NCCLS method; type: cell-based; details: Candida glabrata ATCC 48435; 48 hours
# Procedure, shortened: as §1
# [9] = tested on: Candida parapsilosis ATCC 34136; experiment: In vitro antifungal activity (MIC), NCCLS method; type: cell-based; details: Candida parapsilosis ATCC 34136; 48 hours
# Procedure, shortened: as §1
# [10] = tested on: Aspergillus fumigatus ATCC 16424; experiment: In vitro antifungal activity (MIC), NCCLS method; type: cell-based; details: 48 hours
# Procedure, shortened: as §2
# [11] = tested on: Aspergillus flavus ATCC 64025; experiment: In vitro antifungal activity (MIC), NCCLS method; type: cell-based; details: 48 hours
# Procedure, shortened: as §2
# [12] = tested on: Candida tropicalis ATCC 13803; experiment: In vitro antifungal activity (MIC), NCCLS method; type: cell-based; details: 48 hours
# Procedure, shortened: as §1
# [13] = tested on: Candida albicans ATCC 10231; experiment: In vitro antifungal activity (MIC), NCCLS method; type: cell-based; details: 48 hours
# Procedure, shortened: as §1
# human pathogenic fungi = experiment: Antifungal activity against human pathogenic fungi (summary statements); type: cell-based
# Description: Candida albicans ATCC 10231, Candida lusitaniae ATCC 42720, Candida krusei ATCC 6258, Candida tropicalis ATCC 13803, Candida glabrata ATCC 48435, Candida parapsilosis ATCC 34136, Cryptococcus neoformans ATCC 36556, Aspergillus fumigatus ATCC 16424, Aspergillus flavus ATCC 64025, Aspergillus terreus ATCC 46941 and Mucor ramosissimus ATCC 90286 strains for the MIC (minimum inhibitory concentration) measurement were obtained from ATCC (American Type Culture Collection) in the U.S. The Candida albicans A207(clinical isolate) strain was used by isolating it from the patients.
# The determination of MIC was performed according to the NCCLS (National Committee for Clinical Laboratory Standard) method. Each test sample solution was diluted two-fold and inoculated with a fungal suspension to reach a final inoculum size of 5×10^2 to 2.5×10^3 cell/mL. The Cryptococcus neoformans strain was cultured in the RPMI 1640 medium for 72 hours. Other strains were cultured for 48 hours.
Substance,Relative activity Enzyme 2 [1],Relative activity Enzyme 1 [2],Acute toxicity LD50 (Acute toxicity in mice; abdominal),Acute toxicity LD50 (Acute toxicity in mice; oral),inhibitory activities against the chitin synthases (in words) (chitin synthases),MIC (minimum inhibitory concentration) [3],MIC (minimum inhibitory concentration) [4],MIC (minimum inhibitory concentration) [5],MIC (minimum inhibitory concentration) [6],MIC (minimum inhibitory concentration) (Candida krusei ATCC 6258),MIC (minimum inhibitory concentration) [7],MIC (minimum inhibitory concentration) [8],MIC (minimum inhibitory concentration) [9],MIC (minimum inhibitory concentration) [10],MIC (minimum inhibitory concentration) [11],MIC (minimum inhibitory concentration) [12],MIC (minimum inhibitory concentration) [13],antifungal activities compared with amphotericin B (in words) (human pathogenic fungi),other results
13-(4-Isopropylbenzyl)-9-O-butylberberrubine chloride [Compound No. 50],"7 (compounds having the inhibitory activity at ½, ¼ and ⅛ lower concentrations than that of polyoxin D were given the values of 6, 7 and 8, respectively)","4 (Compounds having the inhibitory activity at 2-fold, 4-fold, 8-fold and 16-fold higher concentrations than that of polyoxin D were given the values of 4, 3, 2 and 1, respectively)",>15 mg/kg,>1000 mg/kg,exceptionally superior inhibitory activities,0.5 mg/L,0.5 mg/L,8 mg/L,4 mg/L,1 mg/L,1 mg/L,4 mg/L,4 mg/L,2 mg/L,8 mg/L,0.25 mg/L,0.5 mg/L,comparable to that of amphotericin B,
13-(4-tert-Butylbenzyl)-9-O-butylberberrubine iodide [Compound No. 8],"7 (compounds having the inhibitory activity at ½, ¼ and ⅛ lower concentrations than that of polyoxin D were given the values of 6, 7 and 8, respectively)","4 (Compounds having the inhibitory activity at 2-fold, 4-fold, 8-fold and 16-fold higher concentrations than that of polyoxin D were given the values of 4, 3, 2 and 1, respectively)",>15 mg/kg,>1000 mg/kg,exceptionally superior inhibitory activities,1 mg/L,0.5 mg/L,8 mg/L,4 mg/L,2 mg/L,1 mg/L,4 mg/L,4 mg/L,2 mg/L,8 mg/L,0.25 mg/L,0.5 mg/L,comparable to that of amphotericin B,"deaths (Acute toxicity in mice; mice, oral administration dosage of 1,000 mg/kg): no case of death observed; Autopsy findings (Acute toxicity in mice; mouse, in vivo): Nothing; general symptoms and body weight (Acute toxicity in mice; mouse, in vivo): no abnormalities; Autopsy findings (Acute toxicity in mice; mouse, in vivo, po): Nothing"
